Assay results taken from PubChem BioAssay AID1963827 (Molecular Pharmacology Branch, DTP, NCI, 2024).

System: 994946-033-R-J1-PDC complex spheroid viability
Test: Anticancer human tumor 994946-033-R-J1-PDC patient-derived melanoma cell line growth inhibition [POLQ]
Details: for IC50: curve of first compound; for viability, T/C: stronger effect = lower value
Protocol: Multicellular complex tumor spheroid response to Polymerase (POL) inhibitors (novobiocin, ART-558, RP6685) in combination with a variety of drugs and investigational agents in selected tumor cell lines
The POL inhibitors (novobiocin, ART-558, and RP6685) were evaluated both individually and in combination with standard of care and investigational anticancer small molecules within a complex spheroid model of solid tumors. . Complex spheroids include a stromal component modeled by human endothelial cells (HUVEC) and fibroblasts modeled by human mesenchymal stem cells (MSCs). The concentration ranges selected for each drug and investigational agent were based upon clinically achievable concentrations if the clinical Cmax of the agent was known.
Compounds. The drugs and investigational agents: novobiocin (NSC847541), ART-558 (NSC835418), RP-6685 (NSC848927), peposertib (NSC802822), ceralasertib (NSC780249), elimusertib (NSC800525), camonsertib (NSC841442), AZD-1390 (NSC803789), olaparib (NSC753686), talazoparib (NSC767125), rucaparib (NSC756644), sotorasib (NSC818433), MRTX-1133 (NSC836407), SN-38 (NSC673596), topotecan (NSC609699), epotoside (NSC141540), doxorubicin (NSC123127), gemcitabine (NSC613327), 5-fluorouracil (NSC19893), paclitaxel (NSC125973), vemurafenib (NSC761431), MSA-2 (NSC828583), SN-011 (NSC837082), adavosertib (NSC754352), prexasertib (NSC758257), carboplatin (NSC241240) and oxaliplatin (NSC266046), were obtained from the National Cancer Institute (NCI) Developmental Therapeutics Program Chemical Repository (21). The FDA-approved anticancer drug set is available from the Developmental Therapeutics Program at https://dtp.cancer.gov/organization/dscb/obtaining/. […] The stock solutions were prepared in dimethyl sulfoxide (DMSO, Sigma-Aldrich, St. Louis, MO, cat. D2650), except for the platinum compounds which were prepared in saline (Quality Biological, Gaithersburg, MD, cat. 114-055-101), at 800-fold the tested concentration and stored at -70 degrees C prior to their use. All drugs and investigational agents were tested over a range starting from a high concentration at or near the clinical Cmax and decreasing in half-log increments. If the clinical Cmax for an agent had not been determined, the highest concentration tested was 10 microM, except for SN-38, which was tested at a high concentration of 1 microM.
Cell Culture. All cells were maintained in an incubator at 37 degrees C and 5% CO2 with 95% humidity. The PDC lines were cultured according to standard operating procedures established by the NCI PDMR (https://pdmr.cancer.gov). Table 3 of the manuscript, lists the cell lines along with the number of the three cell types plated to form the mct-spheroids and media for tumor cell growth. After thawing, all PDC lines, except 997537-175-T-J1-PDC and 415267-285-R-J2-PDC, were cultured in Matrigel-coated flasks prepared with a working solution of 1X Ham's F-12 nutrient mix, without supplementation (Thermo Fisher Scientific, cat. 11765054), 100 U/mL penicillin-streptomycin (Thermo Fisher Scientific, cat. 15140122), and 2.5% Matrigel (Corning Inc., Corning, NY, cat. 354248) for the first three passages. The two PDC lines 997537-175-T-J1-PDC and 415267-285-R-J2-PDC were cultured on uncoated flasks. The 857933-349-R-J2-PDC line was cultured in 6C/Colon 1B media containing advanced DMEM/F-12 (Thermo Fisher Scientific, cat. 12634028), 10 mM HEPES (Thermo Fisher Scientific, cat. 15630080), 1X GlutaMAX supplement (Thermo Fisher Scientific, cat. 35050061), 0.1 mg/mL primocin (InvivoGen, San Diego, CA, cat. ant-pm-2), 10% defined fetal bovine serum, heat inactivated (HyClone Laboratories Inc., Logan, UT, cat. SH30070.03HI), 50% L-WRN conditioned media (ATCC, cat. CRL-3276), 1.25 mM N-Acetyl-L-cysteine (Sigma-Aldrich, cat. A9165), 10 mM nicotinamide (Sigma-Aldrich, cat. N0636), 1X B-27 supplement (Thermo Fisher Scientific, cat. 17504044), 1X N-2 supplement (Thermo Fisher Scientific, cat. […]

[1] = second compound 0.0316 µM, first compound 0.0316 µM
[2] = second compound 0.0316 µM, first compound 0.1 µM
[3] = second compound 0.0316 µM, first compound 0.316 µM
[4] = second compound 0.0316 µM, first compound 1 µM
[5] = second compound 0.1 µM, first compound 0.0316 µM
[6] = second compound 0.1 µM, first compound 0.1 µM
[7] = second compound 0.1 µM, first compound 0.316 µM
[8] = second compound 0.1 µM, first compound 1 µM
[9] = second compound 0.316 µM, first compound 0.0316 µM
[10] = second compound 0.316 µM, first compound 0.1 µM
[11] = second compound 0.316 µM, first compound 0.316 µM
[12] = second compound 0.316 µM, first compound 1 µM
[13] = second compound 1 µM, first compound 0.0316 µM
[14] = second compound 1 µM, first compound 0.1 µM
[15] = second compound 1 µM, first compound 0.316 µM
[16] = second compound 1 µM, first compound 1 µM
[17] = second compound 3.16 µM, first compound 0.0316 µM
[18] = second compound 3.16 µM, first compound 0.1 µM
[19] = second compound 3.16 µM, first compound 0.316 µM
[20] = second compound 3.16 µM, first compound 1 µM
[21] = second compound 10 µM, first compound 0.0316 µM
[22] = second compound 10 µM, first compound 0.1 µM
[23] = second compound 10 µM, first compound 0.316 µM
[24] = second compound 10 µM, first compound 1 µM
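Also: spheroids exposed to drugs for 7 days.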
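For viability, T/C in this document: 100% = DMSO vehicle treated spheroids.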

In the case of `CNCc1ccc(-c2[nH]c3cc(F)cc4c3c2CCNC4=O)cc1` + COC1C(OC(N)=O)C(O)C(Oc2ccc3c(O)c(NC(=O)c4ccc(O)c(CC=C(C)C)c4)c(=O)oc3c2C)OC1(C)C, the IC50 (second compound 0.0316 µM) is reported as over 10000 nM, the IC50 (second compound 0.1 µM) is reported as over 10000 nM and the IC50 (second compound 0.316 µM) is reported as over 10000 nM. It also gave an IC50 (second compound 1 µM) of over 10000 nM, an IC50 (second compound 3.16 µM) of over 10000 nM and an IC50 (second compound 10 µM) of over 10000 nM. For the same molecule, the viability, T/C [1] was 114%, the viability, T/C [2] was 93.7% and the viability, T/C [3] was 96%. For the same molecule, the viability, T/C [4] was 96.3%, the viability, T/C (second compound 0.0316 µM, first compound 3.16 µM) was 101% and the viability, T/C (second compound 0.0316 µM, first compound 10 µM) was 70.9%. It also gave a viability, T/C [5] of 107%, a viability, T/C [6] of 119% and a viability, T/C [7] of 83%. The viability, T/C [8] was 114%, the viability, T/C (second compound 0.1 µM, first compound 3.16 µM) was 94.4% and the viability, T/C (second compound 0.1 µM, first compound 10 µM) was 93.3%. The viability, T/C [9] was 117%, the viability, T/C [10] was 126% and the viability, T/C [11] was 105%. It also gave a viability, T/C [12] of 117%, a viability, T/C (second compound 0.316 µM, first compound 3.16 µM) of 107% and a viability, T/C (second compound 0.316 µM, first compound 10 µM) of 61.1%. It also gave a viability, T/C [13] of 107%, a viability, T/C [14] of 91.4% and a viability, T/C [15] of 88.4%. It also gave a viability, T/C [16] of 110%, a viability, T/C (second compound 1 µM, first compound 3.16 µM) of 109% and a viability, T/C (second compound 1 µM, first compound 10 µM) of 61.6%. The viability, T/C [17] was 92.9%, the viability, T/C [18] was 95.2% and the viability, T/C [19] was 106%. The viability, T/C [20] was 112%, the viability, T/C (second compound 3.16 µM, first compound 3.16 µM) was 99.2% and the viability, T/C (second compound 3.16 µM, first compound 10 µM) was 72.8%. For the same molecule, the viability, T/C [21] was 117%, the viability, T/C [22] was 94.6% and the viability, T/C [23] was 80.3%. The viability, T/C [24] was 85.1%, the viability, T/C (second compound 10 µM, first compound 3.16 µM) was 94.5% and the viability, T/C (second compound 10 µM, first compound 10 µM) was 64.8%.

With `C=CCn1c(=O)c2cnc(Nc3ccc(N4CCN(C)CC4)cc3)nc2n1-c1cccc(C(C)(C)O)n1` + Nc1ccc(C#CCN(C(=O)Cc2ncc(C(F)(F)F)cc2C(F)(F)F)c2ccc(F)cc2)nn1 the IC50 (second compound 0.0316 µM) was 837 nM, the IC50 (second compound 0.1 µM) was 444 nM and the IC50 (second compound 0.316 µM) was 397 nM. For the same molecule, the IC50 (second compound 1 µM) was 780 nM, the IC50 (second compound 3.16 µM) was 712 nM and the IC50 (second compound 10 µM) was 643 nM. The viability, T/C (second compound 0.0316 µM, first compound 0.00316 µM) was 70.3%, the viability, T/C (second compound 0.0316 µM, first compound 0.01 µM) was 122% and the viability, T/C [1] was 80%. The viability, T/C [2] was 95.6%, the viability, T/C [3] was 91.8% and the viability, T/C [4] was 42.4%. For the same molecule, the viability, T/C (second compound 0.1 µM, first compound 0.00316 µM) was 81%, the viability, T/C (second compound 0.1 µM, first compound 0.01 µM) was 107% and the viability, T/C [5] was 97.8%. It also gave a viability, T/C [6] of 103%, a viability, T/C [7] of 59.2% and a viability, T/C [8] of 28%. The viability, T/C (second compound 0.316 µM, first compound 0.00316 µM) was 101%, the viability, T/C (second compound 0.316 µM, first compound 0.01 µM) was 124% and the viability, T/C [9] was 105%. For the same molecule, the viability, T/C [10] was 81.7%, the viability, T/C [11] was 60.2% and the viability, T/C [12] was 20.6%. The viability, T/C (second compound 1 µM, first compound 0.00316 µM) was 123%, the viability, T/C (second compound 1 µM, first compound 0.01 µM) was 100% and the viability, T/C [13] was 147%. The viability, T/C [14] was 109%, the viability, T/C [15] was 100% and the viability, T/C [16] was 36.2%. For the same molecule, the viability, T/C (second compound 3.16 µM, first compound 0.00316 µM) was 109%, the viability, T/C (second compound 3.16 µM, first compound 0.01 µM) was 105% and the viability, T/C [17] was 120%. The viability, T/C [18] was 85%, the viability, T/C [19] was 84.9% and the viability, T/C [20] was 36.4%. For the same molecule, the viability, T/C (second compound 10 µM, first compound 0.00316 µM) was 106%, the viability, T/C (second compound 10 µM, first compound 0.01 µM) was 82.5% and the viability, T/C [21] was 94.8%. It also gave a viability, T/C [22] of 95.4%, a viability, T/C [23] of 67.4% and a viability, T/C [24] of 39.1%.
